PubChem BioAssay AID1259407 (Chemical Carcinogenesis Research Information System (CCRIS), 2018)
Activity calls are given as the source filed them. The rule behind the calls is not given here.

Test system: CCRIS mutagenicity, Ames/micronucleus/aberration tests
Test: CCRIS mutagenicity studies
[1] = Test System: AMES SALMONELLA TYPHIMURIUM, Strain/Indicator: TA98, Metabolic Activation: NONE, Method: STANDARD PLATE
[2] = Test System: AMES SALMONELLA TYPHIMURIUM, Strain/Indicator: TA100, Metabolic Activation: RAT, LIVER, S-9, AROCLOR 1254, Method: STANDARD PLATE

**Q.** How did the mutagenic call (End Point: IN VITRO CHROMOSOMAL ABERRATIONS, Test System: CHL CELLS, Metabolic Activation: NONE) turn out when `O=Nc1ccc(NO)cc1` was run?
**A.** active; positive (structural changes)

**Q.** What about the mutagenic call (End Point: IN VITRO CHROMOSOMAL ABERRATIONS, Test System: CHL CELLS, Metabolic Activation: RAT, LIVER, S-9, SODIUM PHENOBARBITAL AND 5,6-BENZOFLAVONE) of the same molecule?
**A.** active; positive (structural changes)

**Q.** And the mutagenic call [1]?
**A.** active; positive

**Q.** And the mutagenic call (Test System: AMES SALMONELLA TYPHIMURIUM, Strain/Indicator: TA98, Metabolic Activation: S-9, PHENOBARBITONE AND BETA-NAPHTHOFLAVONE, Method: STANDARD PLATE)?
**A.** active; positive

**Q.** And the mutagenic call (Test System: E. COLI, Strain/Indicator: WP2 UVRA, Metabolic Activation: HAMSTER, LIVER, S-9, AROCLOR 1254, Method: STANDARD PLATE)?
**A.** inactive; negative

**Q.** And the mutagenic call (Test System: E. COLI, Strain/Indicator: WP2 UVRA, Metabolic Activation: HAMSTER, LIVER, S-9, Method: STANDARD PLATE)?
**A.** inactive; negative

**Q.** What about the mutagenic call (Test System: E. COLI, Strain/Indicator: WP2 UVRA, Metabolic Activation: MOUSE, LIVER, S-9, AROCLOR 1254, Method: STANDARD PLATE) of the same molecule?
**A.** inactive; negative

**Q.** What about the mutagenic call (Test System: E. COLI, Strain/Indicator: WP2 UVRA, Metabolic Activation: MOUSE, LIVER, S-9, Method: STANDARD PLATE) of the same molecule?
**A.** inactive; negative

**Q.** What about the mutagenic call (Test System: E. COLI, Strain/Indicator: WP2 UVRA, Metabolic Activation: NONE, Method: STANDARD PLATE) of the same molecule?
**A.** inactive; negative

**Q.** What about the mutagenic call (Test System: E. COLI, Strain/Indicator: WP2 UVRA, Metabolic Activation: RAT, LIVER, S-9, AROCLOR 1254, Method: STANDARD PLATE) of the same molecule?
**A.** inactive; negative

**Q.** And the mutagenic call (Test System: E. COLI, Strain/Indicator: WP2 UVRA, Metabolic Activation: RAT, LIVER, S-9, Method: STANDARD PLATE)?
**A.** inactive; negative

**Q.** What about the mutagenic call (Test System: MOUSE LYMPHOMA, Strain/Indicator: L5178Y (HPRT), Metabolic Activation: NONE, Method: SUSPENSION/PLATE) of the same molecule?
**A.** inactive; negative

**Q.** And the mutagenic call (Test System: MOUSE LYMPHOMA, Strain/Indicator: L5178Y (TK+/TK-), Metabolic Activation: NONE, Method: SUSPENSION/PLATE)?
**A.** active; positive

**Q.** What about the mutagenic call (Test System: UDS RODENT HEPATOCYTES, Strain/Indicator: THY INCORP, Metabolic Activation: NONE, Method: IN VIVO) of the same molecule?
**A.** inactive; negative

**Q.** `CC(N)(CN=[N+]=[N-])C(=O)O` (stereo not drawn) was tested. Which mutagenic call (Test System: AMES SALMONELLA TYPHIMURIUM, Strain/Indicator: TA1530, Metabolic Activation: NONE, Method: STANDARD PLATE) did it give?
**A.** active; positive

**Q.** How did the mutagenic call (Test System: AMES SALMONELLA TYPHIMURIUM, Strain/Indicator: TA98, Metabolic Activation: RAT LIVER CYTOSOL, AROCLOR 1254, Method: STANDARD PLATE) turn out when `Nc1cc2ccccc2cc1N` was run?
**A.** active; positive

**Q.** And the mutagenic call (Test System: AMES SALMONELLA TYPHIMURIUM, Strain/Indicator: TA98, Metabolic Activation: RAT LIVER MICROSOMES, AROCLOR 1254, Method: STANDARD PLATE)?
**A.** active; positive

**Q.** What does the source list for `O=C(O)C(Cl)(Cl)Cl`?
**A.** mutagenic call (End Point: IN VIVO MICRONUCLEUS, Test System: BONE MARROW POLYCHROMATIC ERYTHROCYTES, Species: MOUSE, Strain/Sex: C57BL/6JFBL10/ALPK/FEMALE, Route: IP INJECTION 2 TIMES AT 24 HR INTERVAL): inactive; negative; mutagenic call (End Point: IN VIVO MICRONUCLEUS, Test System: BONE MARROW POLYCHROMATIC ERYTHROCYTES, Species: MOUSE, Strain/Sex: C57BL/6JFBL10/ALPK/MALE, Route: IP INJECTION 2 TIMES AT 24 HR INTERVAL): inactive; negative; a statistically significant increase was observed at 675 mg/kg after 2; mutagenic call (Test System: AMES SALMONELLA TYPHIMURIUM, Strain/Indicator: RSJ100, Metabolic Activation: NONE, Method: PREINCUBATION): inactive; negative; mutagenic call (Test System: AMES SALMONELLA TYPHIMURIUM, Strain/Indicator: RSJ100, Metabolic Activation: RAT LIVER S-9, Method: PREINCUBATION): inactive; negative; mutagenic call (Test System: AMES SALMONELLA TYPHIMURIUM, Strain/Indicator: TA98, Metabolic Activation: NONE, Method: PREINCUBATION): inactive; negative; mutagenic call (Test System: AMES SALMONELLA TYPHIMURIUM, Strain/Indicator: TA98, Metabolic Activation: RAT LIVER S-9, Method: PREINCUBATION): inactive; negative; mutagenic call (Test System: AMES SALMONELLA TYPHIMURIUM, Strain/Indicator: TA98, Metabolic Activation: RAT, LIVER, S-9, PHENOBARBITAL AND 5,6-BENZOFLAVONE, Method: PREINCUBATION): inactive; negative; mutagenic call (Test System: AMES SALMONELLA TYPHIMURIUM, Strain/Indicator: TA100, Metabolic Activation: NONE, Method: BAG VAPORIZATION): inactive; negative; mutagenic call (Test System: AMES SALMONELLA TYPHIMURIUM, Strain/Indicator: TA100, Metabolic Activation: NONE, Method: FLUCTUATION TEST): active; positive; mutagenic call (Test System: AMES SALMONELLA TYPHIMURIUM, Strain/Indicator: TA100, Metabolic Activation: NONE, Method: PREINCUBATION): inactive; negative; mutagenic call (Test System: AMES SALMONELLA TYPHIMURIUM, Strain/Indicator: TA100, Metabolic Activation: RAT LIVER S-9, Method: PREINCUBATION): inactive; negative; mutagenic call (Test System: AMES SALMONELLA TYPHIMURIUM, Strain/Indicator: TA100, Metabolic Activation: RAT, LIVER, S-9, AROCLOR 1254, Method: BAG VAPORIZATION): inactive; negative; mutagenic call (Test System: AMES SALMONELLA TYPHIMURIUM, Strain/Indicator: TA100, Metabolic Activation: RAT, LIVER, S-9, AROCLOR 1254, Method: FLUCTUATION TEST): active; positive; mutagenic call (Test System: AMES SALMONELLA TYPHIMURIUM, Strain/Indicator: TA100, Metabolic Activation: RAT, LIVER, S-9, PHENOBARBITAL AND 5,6-BENZOFLAVONE, Method: PREINCUBATION): inactive; negative; mutagenic call (Test System: AMES SALMONELLA TYPHIMURIUM, Strain/Indicator: TA102, Metabolic Activation: NONE, Method: STANDARD PLATE): inactive; negative; mutagenic call (Test System: AMES SALMONELLA TYPHIMURIUM, Strain/Indicator: TA102, Metabolic Activation: RAT LIVER S-9, AROCLOR 1254, Method: STANDARD PLATE): inactive; negative; mutagenic call (Test System: MOUSE LYMPHOMA, Strain/Indicator: L5178Y (TK+/TK- -3.7.2C), Metabolic Activation: S-9): active; positive

**Q.** `OC1C=Cc2cc3c(cc2C1O)-c1cccc2cccc-3c12` (stereo not drawn) was tested. Which mutagenic call [2] did it give?
**A.** active; positive

**Q.** Which results are given for `O=[N+]([O-])c1ccccc1OS(=O)(=O)c1cccc2cccnc12`?
**A.** mutagenic call [1]: inactive; negative; mutagenic call (Test System: AMES SALMONELLA TYPHIMURIUM, Strain/Indicator: TA98, Metabolic Activation: RAT, LIVER, S-9, AROCLOR 1254, Method: STANDARD PLATE): active; positive; mutagenic call (Test System: AMES SALMONELLA TYPHIMURIUM, Strain/Indicator: TA100, Metabolic Activation: NONE, Method: STANDARD PLATE): inactive; negative; mutagenic call [2]: active; positive; mutagenic call (Test System: AMES SALMONELLA TYPHIMURIUM, Strain/Indicator: TA1535, Metabolic Activation: NONE, Method: STANDARD PLATE): inactive; negative; mutagenic call (Test System: AMES SALMONELLA TYPHIMURIUM, Strain/Indicator: TA1535, Metabolic Activation: RAT, LIVER, S-9, AROCLOR 1254, Method: STANDARD PLATE): inactive; negative; mutagenic call (Test System: AMES SALMONELLA TYPHIMURIUM, Strain/Indicator: TA1537, Metabolic Activation: NONE, Method: STANDARD PLATE): inactive; negative; mutagenic call (Test System: AMES SALMONELLA TYPHIMURIUM, Strain/Indicator: TA1537, Metabolic Activation: RAT, LIVER, S-9, AROCLOR 1254, Method: STANDARD PLATE): inactive; negative
